From ChEMBL document CHEMBL4043204, “meso-Dihydroguaiaretic acid derivatives with antibacterial and antimycobacterial activity” (Bioorg Med Chem, 2017)
Values after ≈ are worked out from the molar mass of the structure shown. Active and inactive are the calls of the source. No cut-off for these calls is given here.

What was measured:
Assay type in all cases: functional
[1] = tested on: Mycobacterium tuberculosis; assay: Antimycobacterial activity against isoniazid/rifampicin/ethambutol-resistant Mycobacterium tuberculosis G122 assessed as inhibition of mycobacterial growth incubated for 2 weeks by MABA method; conditions: for MIC: Mycobacterium tuberculosis, G122, 336 h
[2] = tested on: Mycobacterium tuberculosis; assay: Antimycobacterial activity against isoniazid/rifampicin/streptomycin-resistant Mycobacterium tuberculosis G133 assessed as inhibition of mycobacterial growth incubated for 2 weeks by MABA method; conditions: for MIC: Mycobacterium tuberculosis, G133, 336 h
[3] = tested on: Mycobacterium tuberculosis; assay: Antimycobacterial activity against isoniazid/rifampicin/ethambutol-resistant Mycobacterium tuberculosis G122 assessed as inhibition of mycobacterial growth up to 50 ug/ml incubated for 2 weeks by MABA method
[4] = tested on: Mycobacterium tuberculosis; assay: Antimycobacterial activity against isoniazid/rifampicin/streptomycin-resistant Mycobacterium tuberculosis G133 assessed as inhibition of mycobacterial growth up to 50 ug/ml incubated for 2 weeks by MABA method
[5] = tested on: Mycobacterium tuberculosis; assay: Antibacterial activity against multidrug-resistant Mycobacterium tuberculosis

| Structure (SMILES) | -logMIC [1] | MIC [1] [µg/mL] | -logMIC [2] | MIC [2] [µg/mL] | growth inhibition (GI) [3] | growth inhibition (GI) [4] | MIC [5] [µg/mL] |
| --- | --- | --- | --- | --- | --- | --- | --- |
| COc1cc(C[C@@H](C)[C@@H](C)Cc2ccc(OC(C)=O)c(OC)c2)ccc1OC(C)=O | 4.23 | > 50 | 4.23 | > 50 | – | – | – |
| COc1cc(C[C@@H](C)[C@@H](C)Cc2ccc(OC(=O)c3ccccc3[N+](=O)[O-])c(OC)c2)ccc1OC(=O)c1ccccc1[N+](=O)[O-] | 4.03 | – | 4.03 | – | inactive | inactive | – |
| CCCCCCCC/C=C\CCCCCCCC(=O)Oc1ccc(C[C@@H](C)[C@@H](C)Cc2ccc(OC(=O)CCCCCCC/C=C\CCCCCCCC)c(OC)c2)cc1OC | 4.58 | – | 4.58 | – | inactive | inactive | – |
| COc1cc(C[C@@H](C)[C@@H](C)Cc2ccc(OC(=O)c3ccccn3)c(OC)c2)ccc1OC(=O)c1ccccn1 | 3.91 | – | 3.91 | – | inactive | inactive | – |
| COc1cc(C[C@@H](C)[C@@H](C)Cc2ccc(OC(=O)c3ccc(Br)cc3)c(OC)c2)ccc1OC(=O)c1ccc(Br)cc1 | 4.09 | – | 4.09 | – | inactive | inactive | – |
| COc1cc(C[C@@H](C)[C@@H](C)Cc2ccc(OCCN3CCCC3)c(OC)c2)ccc1OCCN1CCCC1 | – | 12.5 (≈ 23.8 µM) | – | 12.5 (≈ 23.8 µM) | – | – | – |
| CCCC(=O)Oc1ccc(C[C@@H](C)[C@@H](C)Cc2ccc(OC(=O)CCC)c(OC)c2)cc1OC | 4.03 | – | 4.03 | – | inactive | inactive | – |
| CCCCCCCCCCCCCCCC(=O)Oc1ccc(C[C@@H](C)[C@@H](C)Cc2ccc(OC(=O)CCCCCCCCCCCCCCC)c(OC)c2)cc1OC | 4.02 | – | 4.02 | – | inactive | inactive | – |
| COc1cc(C[C@@H](C)[C@@H](C)Cc2ccc(OC(=O)c3cccnc3)c(OC)c2)ccc1OC(=O)c1cccnc1 | 4.2 | > 50 | 4.2 | > 50 | – | – | – |
| COc1cc(C[C@@H](C)[C@@H](C)Cc2ccc(OCCN(C)C)c(OC)c2)ccc1OCCN(C)C | 4.62 | 12.5 (≈ 26.4 µM) | 4.62 | 12.5 (≈ 26.4 µM) | – | – | – |
| COc1cc(C[C@@H](C)[C@@H](C)Cc2ccc(OCCN3CCOCC3)c(OC)c2)ccc1OCCN1CCOCC1 | – | 6.25 (≈ 11.2 µM) | – | 25 (≈ 44.9 µM) | – | – | – |
| CCCCCCCCCCCCCCCCCC(=O)Oc1ccc(C[C@@H](C)[C@@H](C)Cc2ccc(OC(=O)CCCCCCCCCCCCCCCCC)c(OC)c2)cc1OC | 3.85 | – | 3.85 | – | inactive | inactive | – |
| COc1cc(C[C@@H](C)[C@@H](C)Cc2ccc(OC(=O)c3ccccc3)c(OC)c2)ccc1OC(=O)c1ccccc1 | 4.14 | – | 4.14 | – | inactive | inactive | – |
| COc1cc(C[C@@H](C)[C@@H](C)Cc2ccc(OCCN3CCCCC3)c(OC)c2)ccc1OCCN1CCCCC1 | – | 6.25 (≈ 11.3 µM) | – | 6.25 (≈ 11.3 µM) | – | – | – |
| CCN(CC)CCOc1ccc(C[C@@H](C)[C@@H](C)Cc2ccc(OCCN(CC)CC)c(OC)c2)cc1OC | 4.25 | 25 (≈ 47.3 µM) | 4.25 | 25 (≈ 47.3 µM) | – | – | – |
| COc1cc(C[C@@H](C)[C@@H](C)Cc2ccc(OC(=O)c3cnccn3)c(OC)c2)ccc1OC(=O)c1cnccn1 | 4.23 | > 50 | 4.23 | > 50 | – | – | – |
| COc1cc(C[C@@H](C)[C@@H](C)Cc2ccc(OC(=O)c3ccc(Br)cc3)c(OC)c2)ccc1O (racemic) | 3.98 | > 50 | 3.97 | > 50 | – | – | – |
| COc1cc(C[C@@H](C)[C@@H](C)Cc2ccc(OC(=O)c3ccccc3[N+](=O)[O-])c(OC)c2)ccc1O (racemic) | 4.24 | 50 (≈ 104 µM) | 3.93 | > 50 | – | – | – |

| Structure (SMILES) | -logMIC [1] | MIC [1] [µg/mL] | -logMIC [2] | MIC [2] [µg/mL] | growth inhibition (GI) [3] | growth inhibition (GI) [4] | MIC [5] [µg/mL] |
| --- | --- | --- | --- | --- | --- | --- | --- |
| CCCCCCCCCCCCCCCCCC(=O)Oc1ccc(C[C@H](C)[C@H](C)Cc2ccc(O)c(OC)c2)cc1OC (racemic) | 3.84 | – | 3.84 | – | inactive | inactive | – |
| COc1cc(C[C@@H](C)[C@@H](C)Cc2ccc(OCCN3CCCCC3)c(OC)c2)ccc1O (racemic) | – | 25 (≈ 56.6 µM) | – | 25 (≈ 56.6 µM) | – | – | – |
| COc1cc(C[C@@H](C)[C@@H](C)Cc2ccc(OC(C)=O)c(OC)c2)ccc1O (racemic) | 4.07 | > 50 | 4.07 | > 50 | – | – | – |
| CCCCCCCC/C=C\CCCCCCCC(=O)Oc1ccc(C[C@H](C)[C@H](C)Cc2ccc(O)c(OC)c2)cc1OC (racemic) | 3.9 | – | 3.9 | – | inactive | inactive | – |
| COc1cc(C[C@@H](C)[C@@H](C)Cc2ccc(OC(=O)c3ccccc3)c(OC)c2)ccc1O (racemic) | 4.01 | > 50 | 4 | > 50 | – | – | – |
| CCCC(=O)Oc1ccc(C[C@H](C)[C@H](C)Cc2ccc(O)c(OC)c2)cc1OC (racemic) | 3.93 | – | 3.93 | – | inactive | inactive | – |
| COc1cc(C[C@@H](C)[C@@H](C)Cc2ccc(OC(=O)c3cnccn3)c(OC)c2)ccc1O (racemic) | 4.07 | > 50 | 4.07 | > 50 | – | – | – |
| CCCCCCCCCCCCCCCC(=O)Oc1ccc(C[C@H](C)[C@H](C)Cc2ccc(O)c(OC)c2)cc1OC (racemic) | 3.93 | – | 3.93 | – | inactive | inactive | – |
| COc1cc(C[C@@H](C)[C@@H](C)Cc2ccc(OCCN3CCCC3)c(OC)c2)ccc1O (racemic) | 4.95 | 25 (≈ 58.5 µM) | 4.95 | 25 (≈ 58.5 µM) | – | – | – |
| COc1cc(C[C@@H](C)[C@@H](C)Cc2ccc(OC(=O)c3cccnc3)c(OC)c2)ccc1O (racemic) | 4.05 | 50 (≈ 115 µM) | 4.05 | 50 (≈ 115 µM) | – | – | – |
| COc1cc(C[C@@H](C)[C@@H](C)Cc2ccc(OC(=O)c3ccccn3)c(OC)c2)ccc1O (racemic) | 3.86 | 25 (≈ 57.4 µM) | 3.86 | > 50 | – | – | – |
| COc1cc(C[C@@H](C)[C@@H](C)Cc2ccc(OCCN(C)C)c(OC)c2)ccc1O (racemic) | 4.23 | > 50 | 4.23 | > 50 | – | – | – |
| COc1cc(C[C@@H](C)[C@@H](C)Cc2ccc(OC)c(OC)c2)ccc1O (racemic) | 3.94 | 50 (≈ 145 µM) | 3.94 | 50 (≈ 145 µM) | – | – | – |
| COc1cc(C[C@@H](C)[C@@H](C)Cc2ccc(OCCN3CCOCC3)c(OC)c2)ccc1O (racemic) | – | – | – | – | inactive | inactive | – |
| CC[C@@H](CO)NCCN[C@@H](CC)CO [ETHAMBUTOL] | – | 6.25 (≈ 30.6 µM) | – | 3.12 (≈ 15.3 µM) | – | – | – |
| C[C@H]1COc2c(N3CCN(C)CC3)c(F)cc3c(=O)c(C(=O)O)cn1c23.C[C@H]1COc2c(N3CCN(C)CC3)c(F)cc3c(=O)c(C(=O)O)cn1c23.O [LEVOFLOXACIN] | – | 6.25 | – | 1.56 | – | – | – |
| COc1cc(C[C@@H](C)[C@@H](C)Cc2ccc(O)c(OC)c2)ccc1O [MESODIHYDROGUAIARETIC ACID] | – | > 50 | – | > 50 | – | – | 12.5 to 50 (≈ 37.8 to 151 µM) |
| COc1ccc(C[C@@H](C)[C@@H](C)Cc2ccc(OC)c(OC)c2)cc1OC [TERAMEPROCOL] | 4.95 | – | 4.35 | – | inactive | inactive | – |
